Reference: patent US20050171037A1, “Therapeutic combinations” (Agouron Pharmaceuticals, Inc., priority 2004, published 2005)
Like-named read-outs stand apart in the source and are kept apart here.

Legend:
[1] = Compound A pharmacokinetics after oral administration of a single dose with and without ritonavir, human subjects, fed; format: in vivo; details: for Ae % (drug recovered unchanged in urine, percent of administered dose): arithmetic mean
[2] = as above; format: in vivo; details: for half-life / Cmax / AUC / Tmax: plasma, po; for half-life / Ae % (drug recovered unchanged in urine, percent of administered dose): arithmetic mean; for Cmax / AUC: geometric mean; for AUC: read-out: AUC (area under the concentration-time curve from time 0 to infinity); for Tmax: median
Procedure: Nos. 11/008325, filed Dec. 8, 2004, and 60/591,351, filed Jul. 26, 2004, all of which are hereby incorporated by reference for this purpose. A total of 30 human subjects were administered a single 100 mg, 300 mg, 800 mg, 1000 mg, 1500 mg, 2000 mg, or 3000 mg dose of a spray-dried composition comprising 90 wt % amorphous Compound A and 10 wt % hydroxypropyl methyl cellulose acetate succinate (HPMCAS), under fed conditions according to the schedule found in Table I. […] Each plasma sample was analyzed for the presence of Compound A and the following pharmacokinetic parameters for Compound A were determined for each subject: area under the concentration-time curve from time 0 extrapolated to infinity (AUC), maximum observed plasma concentration (Cmax), time to first occurrence of Cmax (Tmax), terminal phase plasma half-life (t1/2), and cumulative amount of drug recovered unchanged in the urine expressed as a percentage of administered dose (Ae %). The mean to t1/2 value for the 100 mg dose group was calculated from three subjects. The t1/2 values for three subjects at this dose level were deemed unreliable owing to poor estimates of the terminal phase rate constant from regressions (r^2 values less than 0.9) and, therefore, were not included in the summary statistics. Similarly, the th for one subject in the 800 mg dose group was deemed unreliable owing to poor estimate of the terminal phase rate constant from regression (r^2 values less than 0.9) and therefore was not included in the summary statistics.

[3] = single oral dose 400 mg + ritonavir (100 mg every 12 hours for 3 doses)
[4] = single oral dose 800 mg + ritonavir (100 mg every 12 hours for 3 doses)
[5] = 100 mg, single oral dose 100 mg, without ritonavir
[6] = 300 mg, single oral dose 300 mg, without ritonavir
[7] = 800 mg, single oral dose 800 mg, without ritonavir
[8] = 1000 mg, single oral dose 1000 mg, without ritonavir
[9] = 1500 mg, single oral dose 1500 mg, without ritonavir
[10] = 2000 mg, single oral dose 2000 mg, without ritonavir
[11] = 3000 mg, single oral dose 3000 mg, without ritonavir

- AUC ([1]; plasma, single oral dose 400 mg + ritonavir (100 mg every 12 hours for 3 doses), geometric mean, read-out: AUC (area under the concentration-time curve from time 0 to infinity)): 42500 ng·h/mL
- AUC (area under the concentration-time curve from time 0 to infinity) ([1]; single oral dose 800 mg + ritonavir (100 mg every 12 hours for 3 doses), geometric mean): 71400 ng·h/mL
- half-life ([2]; 100 mg, single oral dose 100 mg, without ritonavir, N = 3, read-out: t½ (terminal phase plasma half-life) (converted)): 8.63 h
- Cmax [2, 5]: 160 ng/mL
- AUC [2, 5]: 740 ng·h/mL
- Tmax [2, 5]: 3 h
- half-life ([2]; 300 mg, single oral dose 300 mg, without ritonavir, read-out: t½ (terminal phase plasma half-life) (converted)): 8.17 h
- Cmax [2, 6]: 720 ng/mL
- AUC [2, 6]: 3560 ng·h/mL
- Tmax [2, 6]: 2.5 h
- half-life ([2]; 800 mg, single oral dose 800 mg, without ritonavir, N = 5, read-out: t½ (terminal phase plasma half-life) (converted)): 11.7 h
- Cmax [2, 7]: 3120 ng/mL
- AUC [2, 7]: 15800 ng·h/mL
- Tmax [2, 7]: 3 h
- half-life ([2]; 1000 mg, single oral dose 1000 mg, without ritonavir, read-out: t½ (terminal phase plasma half-life) (converted)): 7.28 h
- Cmax [2, 8]: 3350 ng/mL
- AUC [2, 8]: 16900 ng·h/mL
- Tmax [2, 8]: 3 h
- half-life ([2]; 1500 mg, single oral dose 1500 mg, without ritonavir, read-out: t½ (terminal phase plasma half-life) (converted)): 9.17 h
- Cmax [2, 9]: 7040 ng/mL
- AUC [2, 9]: 41900 ng·h/mL
- Tmax [2, 9]: 4 h
- half-life ([2]; 2000 mg, single oral dose 2000 mg, without ritonavir, read-out: t½ (terminal phase plasma half-life) (converted)): 10.4 h
- Cmax [2, 10]: 7490 ng/mL
- AUC [2, 10]: 44200 ng·h/mL
- Tmax [2, 10]: 2 h
- half-life ([2]; 3000 mg, single oral dose 3000 mg, without ritonavir, read-out: t½ (terminal phase plasma half-life) (converted)): 7.6 h
- Cmax [2, 11]: 11200 ng/mL
- AUC [2, 11]: 86400 ng·h/mL
- Tmax [2, 11]: 4 h
- half-life ([2]; single oral dose 400 mg + ritonavir (100 mg every 12 hours for 3 doses), read-out: t½ (terminal phase plasma half-life) (converted)): 8.56 h
- Cmax [2, 3]: 5210 ng/mL
- Tmax [2, 3]: 3.51 h
- half-life ([2]; single oral dose 800 mg + ritonavir (100 mg every 12 hours for 3 doses), read-out: t½ (terminal phase plasma half-life) (converted)): 8.39 h
- Cmax [2, 4]: 7350 ng/mL
- Tmax [2, 4]: 4 h
Structure (SMILES): C=CCNC(=O)[C@H]1N(C(=O)[C@@H](O)[C@H](Cc2ccccc2)NC(=O)c2cccc(O)c2C)CSC1(C)C [Compound A, (4R)-N-allyl-3-{(2S,3S)-2-hydroxy-3-[(3-hydroxy-2-methylbenzoyl)amino]-4-phenylbutanoyl}-5,5-dimethyl-1,3-thiazolidine-4-carboxamide]
- Ae % (drug recovered unchanged in urine, percent of administered dose) [1, 3]: 20.4%
- Ae % (drug recovered unchanged in urine, percent of administered dose) [1, 4]: 19.4%
- Ae % (drug recovered unchanged in urine, percent of administered dose) ([2]; single oral dose 100 mg, without ritonavir): 1.34%
- Ae % (drug recovered unchanged in urine, percent of administered dose) ([2]; single oral dose 300 mg, without ritonavir): 2.04%
- Ae % (drug recovered unchanged in urine, percent of administered dose) ([2]; single oral dose 800 mg, without ritonavir): 4.00%
- Ae % (drug recovered unchanged in urine, percent of administered dose) ([2]; single oral dose 1000 mg, without ritonavir): 4.21%
- Ae % (drug recovered unchanged in urine, percent of administered dose) ([2]; single oral dose 2000 mg, without ritonavir): 7.92%
- Ae % (drug recovered unchanged in urine, percent of administered dose) ([2]; single oral dose 3000 mg, without ritonavir): 9.05%
